According to publication PMC7320180, “Hydroxamic acid derivatives as HDAC1, HDAC6 and HDAC8 inhibitors with antiproliferative activity in cancer cell lines” (Scientific Reports, 2020):
Where two headings read alike, the source gives them in different places.

Columns and labels:
MIA PaCa-2 cells = assay: MTT cytotoxicity test, MIA PaCa-2; format: cell-based; conditions: Homo sapiens; for inhibition at 50 µM: MIA PaCa-2; for IC50: MIA PaCa-2, 72 h
Procedure: (§1) All compounds were evaluated in triplicate using six points, 1/3 dilutions, with the highest concentration of 50 µM. The triplicate measurements were placed in three different 96-plates, and 1% DMSO was used as a negative control.
(§2) The first sets of […] (GH38, GH18, GH27, FH38, FH18, […] and FH37) were evaluated in different cancer cell lines: HepG2, MCF-7, SH-SY5Y, MIA PaCa-2, and […]. Furthermore, the second series of eight compounds were evaluated using seven cell lines: SH-SY5Y which is a neuroblastoma cell line; HepG2, a hepatocellular carcinoma cell line; MIA PaCa-2, a human pancreatic carcinoma cell line; MCF-7, a breast cancer cell line; HCC1954, a basal-Her2+ breast carcinoma cell line; RCC4-VA, a renal carcinoma cell line with a VHL mutation; and RCC4-VHL, a renal carcinoma cell without the VHL mutation (wild type). The cells used were seeded in 96-well plates and left for 24 h (5% CO2 and 90% humidity, 50000 cells/well) and incubated for 3 days to study the cytotoxicity.

MCF-7 cells = assay: MTT cytotoxicity test, MCF-7; format: cell-based; conditions: Homo sapiens; for inhibition at 50 µM: MCF7; for IC50: MCF7, 72 h
Procedure: as §1, §2

HepG2 cells = assay: MTT cytotoxicity test, HepG2; format: cell-based; conditions: Homo sapiens; for inhibition at 50 µM: HepG2; for IC50: HepG2, 72 h
Procedure: as §1, §2

RCC4-VHL cells = assay: MTT cytotoxicity test, RCC4-VHL; format: cell-based; conditions: Homo sapiens, 72 h, 3 days
Procedure: as §1, §2

SH-SY5Y cells = assay: MTT cytotoxicity test, SH-SY5Y; format: cell-based; conditions: Homo sapiens, 72 h, 3 days
Procedure: as §1, §2

HCC1954 cells = assay: MTT cytotoxicity test, HCC1954; format: cell-based; conditions: 3 days
Procedure: as §1, §2

RCC4-VA cells = assay: MTT cytotoxicity test, RCC4-VA; format: cell-based; conditions: 72 h, 3 days
Procedure: as §1, §2

cancer cell lines = assay: Antiproliferative effect, cell line not stated; format: cell-based; conditions: second series, seven cancer cell lines
Procedure: as §1, §2

HDAC6 = target: T1, HDAC6 (Homo sapiens, UniProt Q9UBN7); assay: HDAC fluorometric enzymatic inhibition assay, HDAC6; format: biochemical
T1 construct: purchased Enzo Life Sciences BML-AK516
T1 sequence (Q9UBN7 1-1215): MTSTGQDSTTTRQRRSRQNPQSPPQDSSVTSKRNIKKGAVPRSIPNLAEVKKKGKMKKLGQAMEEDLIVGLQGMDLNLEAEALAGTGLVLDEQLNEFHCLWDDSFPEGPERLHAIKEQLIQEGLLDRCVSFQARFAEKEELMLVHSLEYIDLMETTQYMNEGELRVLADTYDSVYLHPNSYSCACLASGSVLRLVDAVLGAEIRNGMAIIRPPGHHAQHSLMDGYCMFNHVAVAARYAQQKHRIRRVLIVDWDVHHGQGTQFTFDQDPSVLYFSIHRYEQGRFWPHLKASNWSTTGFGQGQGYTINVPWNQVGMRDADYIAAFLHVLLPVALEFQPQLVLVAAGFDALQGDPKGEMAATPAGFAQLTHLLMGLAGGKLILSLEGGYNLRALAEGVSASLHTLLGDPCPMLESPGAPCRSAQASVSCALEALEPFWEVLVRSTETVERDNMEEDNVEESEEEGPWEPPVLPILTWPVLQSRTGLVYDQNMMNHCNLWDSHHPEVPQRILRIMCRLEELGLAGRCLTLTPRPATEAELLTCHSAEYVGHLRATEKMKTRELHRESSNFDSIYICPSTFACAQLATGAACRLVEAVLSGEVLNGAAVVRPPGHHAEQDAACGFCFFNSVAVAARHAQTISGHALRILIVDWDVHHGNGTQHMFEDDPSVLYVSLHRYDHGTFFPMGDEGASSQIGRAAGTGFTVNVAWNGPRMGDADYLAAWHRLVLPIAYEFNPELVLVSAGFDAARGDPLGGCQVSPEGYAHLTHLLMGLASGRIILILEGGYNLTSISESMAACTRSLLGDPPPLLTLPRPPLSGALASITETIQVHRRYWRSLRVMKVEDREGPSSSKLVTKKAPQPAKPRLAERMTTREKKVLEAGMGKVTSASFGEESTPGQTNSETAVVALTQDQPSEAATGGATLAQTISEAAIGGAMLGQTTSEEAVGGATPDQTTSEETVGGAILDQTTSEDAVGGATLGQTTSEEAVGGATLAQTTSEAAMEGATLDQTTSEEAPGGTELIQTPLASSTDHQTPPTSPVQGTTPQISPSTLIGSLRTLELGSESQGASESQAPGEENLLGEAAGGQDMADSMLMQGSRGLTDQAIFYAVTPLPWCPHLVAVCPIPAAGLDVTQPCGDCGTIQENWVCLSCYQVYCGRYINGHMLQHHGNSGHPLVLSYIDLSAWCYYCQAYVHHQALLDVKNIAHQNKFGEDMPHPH

HDAC1 = target: T2, HDAC1 (Homo sapiens, UniProt Q13547); assay: HDAC fluorometric enzymatic inhibition assay, HDAC1; format: biochemical
T2 construct: purchased Enzo Life Sciences BML-AK511
T2 sequence (Q13547 whole entry): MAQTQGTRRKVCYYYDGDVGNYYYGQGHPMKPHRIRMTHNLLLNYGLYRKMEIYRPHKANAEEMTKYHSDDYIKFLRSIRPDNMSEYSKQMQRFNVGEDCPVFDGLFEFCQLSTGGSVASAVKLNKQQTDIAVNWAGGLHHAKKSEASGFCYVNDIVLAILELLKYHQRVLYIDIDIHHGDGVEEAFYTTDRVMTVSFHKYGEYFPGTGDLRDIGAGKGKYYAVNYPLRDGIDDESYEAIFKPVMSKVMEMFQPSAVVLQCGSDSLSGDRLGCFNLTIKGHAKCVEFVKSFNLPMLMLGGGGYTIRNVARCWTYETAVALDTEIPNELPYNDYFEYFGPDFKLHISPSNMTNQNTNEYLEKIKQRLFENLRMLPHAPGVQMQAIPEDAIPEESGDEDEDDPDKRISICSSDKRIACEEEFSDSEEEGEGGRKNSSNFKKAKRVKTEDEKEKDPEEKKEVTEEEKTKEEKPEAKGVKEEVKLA

HDAC8 = target: T3, HDAC8 (Homo sapiens, UniProt Q9BY41); assay: HDAC fluorometric enzymatic inhibition assay, HDAC8; format: biochemical
T3 construct: purchased Enzo Life Sciences BML-AK518
T3 sequence (Q9BY41 1-377): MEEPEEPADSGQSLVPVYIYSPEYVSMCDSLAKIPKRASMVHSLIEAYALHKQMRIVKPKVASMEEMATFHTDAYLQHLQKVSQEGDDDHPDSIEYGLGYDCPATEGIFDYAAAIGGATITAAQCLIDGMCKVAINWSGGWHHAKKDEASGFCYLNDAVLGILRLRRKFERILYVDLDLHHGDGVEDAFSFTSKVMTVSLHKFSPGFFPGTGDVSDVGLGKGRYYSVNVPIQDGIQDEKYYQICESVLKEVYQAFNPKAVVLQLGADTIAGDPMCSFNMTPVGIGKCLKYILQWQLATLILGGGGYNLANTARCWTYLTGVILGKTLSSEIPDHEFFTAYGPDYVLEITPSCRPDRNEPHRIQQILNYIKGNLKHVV

[1] = MTT, 3 days, read-out: IC50 (µM) MIA PaCa-2
[2] = MTT, 3 days, read-out: IC50 (µM) MCF-7
[3] = MTT, 3 days, read-out: IC50 (µM) HepG2

| SMILES | inhibition at 50 µM (MIA PaCa-2 cells) [%] | IC50 (MIA PaCa-2 cells; read-out: IC50 MIA PaCa-2) [µM] | inhibition at 50 µM (MCF-7 cells) [%] | IC50 (MCF-7 cells; read-out: IC50 MCF-7) [µM] | inhibition at 50 µM (HepG2 cells) [%] | IC50 (HepG2 cells; read-out: IC50 HepG2) [µM] | IC50 (RCC4-VHL cells) [µM] | IC50 (SH-SY5Y cells) [µM] | IC50 (MIA PaCa-2 cells; [1]) [µM] | IC50 (MCF-7 cells; [2]) [µM] | IC50 (HCC1954 cells; Homo sapiens, HCC1954, 72 h) [µM] | IC50 (HepG2 cells; [3]) [µM] | IC50 (RCC4-VA cells) [µM] | also measured |
| --- | --- | --- | --- | --- | --- | --- | --- | --- | --- | --- | --- | --- | --- | --- |
| Cc1ccc(C(=O)NCC(=O)NO)cc1 [GH18, N-(2-(hydroxyamino)-2-oxoethyl)-4-methyl benzamide] | 4.44 | > 50 | 17.2 | > 50 | 3.08 | > 50 |  |  |  |  |  |  |  |  |
| CCCCc1ccc(C(=O)N[C@H](Cc2ccccc2)C(=O)NO)cc1 [YSL-106, (R)-4-butyl-N-(1-(hydroxyamino)-1-oxo-3-phenylpropan-2-yl)benzamide] |  |  |  |  |  |  | 21.1 | 18.9 | 21.6 | 4.94 | 26.1 | 11.6 | 12.9 |  |
| CCCC(CCC)C(=O)N[C@@H](Cc1ccccc1)C(=O)NO [FH37, (S)-N-(1-(hydroxyamino)-1-oxo-3-phenylpropan-2-yl)-2-propylpentanamide] | 7.47 | > 50 | 49.1 | > 50 | 48.6 | > 50 |  |  |  |  |  |  |  |  |
| CCCCc1ccc(C(=O)NCC(=O)NO)cc1 [GH27, 4-butyl-N-(2-(hydroxyamino)-2-oxoethyl)benzamide] | 10.7 | > 50 | 40.4 | > 50 | 1.38 | > 50 |  |  |  |  |  |  |  |  |
| CCCCc1ccc(C(=O)N[C@@H](Cc2ccccc2)C(=O)NO)cc1 [FH27, (S)-4-butyl-N-(1-(hydroxyamino)-1-oxo-3-phenylpropan-2-yl)benzamide] | 2.82 | > 50 | 37.6 | > 50 | 35.4 | > 50 |  |  |  |  |  |  |  |  |
| O=C(CNC(=O)c1ccccc1)NO [GH38, N-(2-(hydroxyamino)-2-oxoethyl)benzamide] | 0.18 | > 50 | 16.1 | > 50 | 1.01 | > 50 |  |  |  |  |  |  |  |  |
| CCCCc1ccc(C(=O)N[C@@H](Cc2ccc(O)cc2)C(=O)NO)cc1 [YSL-99, (S)-4-butyl-N-(1-(hydroxyamino)-3-(4-hydroxyphenyl)-1-oxopropan-2-yl)benzamide] |  |  |  |  |  |  | > 50 | 36.2 | > 50 | 8.96 | 42.9 | 30.9 | > 50 |  |
| CCCCc1ccc(C(=O)N[C@@H](Cc2ccc(F)cc2)C(=O)NO)cc1 [YSL-116, (S)-4-butyl-N-(3-(4-fluorophenyl)-1-(hydroxyamino)-1-oxopropan-2-yl)benzamide] |  |  |  |  |  |  | 44.2 | 19.6 | > 50 | 27.9 | 18 | 18 | 38.9 |  |
| CCCCc1ccc(C(=O)N[C@@H](Cc2ccc3ccccc3c2)C(=O)NO)cc1 [YSL-112, (S)-4-butyl-N-(1-(hydroxyamino)-3-(naphthalen-2-yl)-1-oxopropan-2-yl)benzamide] |  |  |  |  |  |  | 46.5 | 21.4 | > 50 | 7.27 | 7.62 | 10.8 | 31.9 |  |
| O=C(N[C@@H](Cc1ccccc1)C(=O)NO)c1ccccc1 [FH38, (S)-N-(1-(hydroxyamino)-1-oxo-3-phenylpropan-2-yl)benzamide] | 0.43 | > 50 | 21 | > 50 | 14.1 | > 50 |  |  |  |  |  |  |  |  |
| CCCCc1ccc(C(=O)N[C@H](C(=O)NO)c2ccccc2)cc1 [YSL-129, (S)-4-butyl-N-(2-(hydroxyamino)-2-oxo-1-phenylethyl)benzamide] |  |  |  |  |  |  | > 50 | > 50 | > 50 | > 50 | > 50 | > 50 | > 50 | biological activity (cancer cell lines): did not show biological activity |
| Cc1ccc(C(=O)N[C@@H](Cc2ccccc2)C(=O)NO)cc1 [FH18, (S)-N-(1-(hydroxyamino)-1-oxo-3-phenylpropan-2-yl)-4-methylbenzamide] | 0.05 | > 50 | 41.2 | > 50 | 5.52 | > 50 |  |  |  |  |  |  |  |  |
| CCCCc1ccc(C(=O)N[C@@H](Cc2ccc([N+](=O)[O-])cc2)C(=O)NO)cc1 [YSL-125, (S)-4-butyl-N-(1-(hydroxyamino)-3-(4-nitrophenyl)-1-oxopropan-2-yl)benzamide] |  |  |  |  |  |  | 8.02 | 6.5 | 42.5 | 16.6 | 14.8 | 15.7 | 10.5 |  |
| CCCCc1ccc(C(=O)N[C@@H](Cc2cccc3ccccc23)C(=O)NO)cc1 [YSL-109, (S)-4-butyl-N-(1-(hydroxyamino)-3-(naphthalen-1-yl)-1-oxopropan-2-yl)benzamide] |  |  |  |  |  |  | 32.7 | 6.42 | > 50 | 3.41 | 3.41 | 3.39 | 24.9 | IC50 (HDAC6): 0.537 nM; selectivity for HDAC6 (HDAC6; HDAC6 compared with HDAC8 and HDAC1): 4000 fold; IC50 (HDAC1; read-out: IC50 (nM) HDAC1): 259000 nM; IC50 (HDAC1; read-out: IC50 HDAC1): 259000 nM; IC50 (HCC1954 cells): 3.77 µM; IC50 (HDAC8; read-out: IC50 (nM) HDAC8): 2240 nM; IC50 (HDAC8; read-out: IC50 HDAC8): 2240 nM |
| CCCCc1ccc(C(=O)N[C@@H](Cc2ccc(I)cc2)C(=O)NO)cc1 [YSL-121, (S)-4-butyl-N-(1-(hydroxyamino)-3-(4-iodophenyl)-1-oxopropan-2-yl)benzamide] |  |  |  |  |  |  | > 50 | 1.41 | > 50 | > 50 | 8.49 | 41.1 | > 50 |  |
